A short description of series [1]: Cytotoxicity against human RD cells assessed as reduction in cell viability after 72 hrs by CCK-8 assay.
Series [2] has as its system Enterovirus A71. Put plainly: Antiviral activity against EV71 695F infected in ICR mouse assessed as protection against viral infection by measuring mouse survival at 0.4 mg/kg, ip qd administered for 7 days dosed prior to viral infection measured on day 14 relative to control. The series is classed as functional. The note with it: Enterovirus A.
The test system of series [3] is Enterovirus A71. Nature of the series: Antiviral activity against EV71 695F infected in ICR mouse assessed as decrease in body weight loss at 0.4 mg/kg, ip qd administered for 7 days dosed prior to viral infection measured for 2 weeks. It counts as functional, organism-based.
In series [4] the test system is Enterovirus A71. Nature of the series: Antiviral activity against EV71 695F infected in ICR mouse assessed as effect on clinical score at 0.4 mg/kg, ip qd administered for 7 days dosed prior to viral infection measured for 2 weeks. It counts as functional, organism-based.
Series [5] can be described thus: Elimination half life in CD-1 mouse at 2 mg/kg, iv administered as single dose. The note with it: in vivo, read-out: beta t1/2 (converted). It counts as ADME, organism-based.
Series [6] in a line: Volume of distribution in CD-1 mouse at 2 mg/kg, iv administered as single dose. It counts as ADME, organism-based. The settings on record: in vivo.
The nature of series [7]: Clearance in CD-1 mouse at 2 mg/kg, iv administered as single dose. The settings on record: in vivo. The series is classed as ADME, organism-based.
Series [8] can be described thus: […] bioavailability in CD-1 mouse at 5 mg/kg, ip administered as single dose. It counts as ADME, organism-based. The note with it: in vivo, intraperitoneal.
A short description of series [9]: AUC in CD-1 mouse at 5 mg/kg, ip administered as single dose. The note with it: in vivo. The series is classed as ADME, organism-based.
Series [10] in a line: AUC in CD-1 mouse at 2 mg/kg, iv administered as single dose. It counts as ADME, organism-based. The note with it: in vivo.
The nature of series [11]: Cmax in CD-1 mouse at 5 mg/kg, ip administered as single dose. It counts as ADME, organism-based. The arrangement: dose 5 mg/kg, route intraperitoneal. The settings on record: in vivo.
A short description of series [12]: Tmax in CD-1 mouse at 5 mg/kg, ip administered as single dose. The series is classed as ADME, organism-based. The settings on record: in vivo.
Series [13] is described as follows: Stability in mouse liver microsomes. The series is classed as ADME, microsome.
A short description of series [14]: Tmax in CD-1 mouse at 5 mg/kg, po administered as single dose. The settings on record: in vivo. The series is classed as ADME, organism-based.
Series [15] in a line: AUC in CD-1 mouse at 5 mg/kg, po administered as single dose. The series is classed as ADME, organism-based. The note with it: in vivo.
Series [16] in a line: […] bioavailability in CD-1 mouse at 5 mg/kg administered as single dose. The series is classed as ADME, organism-based. The note with it: in vivo, po.
Series [17] can be described thus: Cmax in CD-1 mouse at 5 mg/kg, po administered as single dose. It counts as ADME, organism-based. Details: dose 5 mg/kg, route oral. The note with it: in vivo.
In series [18] the target is Voltage-gated inwardly rectifying potassium channel KCNH2 (Homo sapiens, UniProt Q12809). Nature of the series: Inhibition of human ERG expressed in CHO-K1 cells by Qpatch assay.
Chain of Voltage-gated inwardly rectifying potassium channel KCNH2 (Q12809 whole entry): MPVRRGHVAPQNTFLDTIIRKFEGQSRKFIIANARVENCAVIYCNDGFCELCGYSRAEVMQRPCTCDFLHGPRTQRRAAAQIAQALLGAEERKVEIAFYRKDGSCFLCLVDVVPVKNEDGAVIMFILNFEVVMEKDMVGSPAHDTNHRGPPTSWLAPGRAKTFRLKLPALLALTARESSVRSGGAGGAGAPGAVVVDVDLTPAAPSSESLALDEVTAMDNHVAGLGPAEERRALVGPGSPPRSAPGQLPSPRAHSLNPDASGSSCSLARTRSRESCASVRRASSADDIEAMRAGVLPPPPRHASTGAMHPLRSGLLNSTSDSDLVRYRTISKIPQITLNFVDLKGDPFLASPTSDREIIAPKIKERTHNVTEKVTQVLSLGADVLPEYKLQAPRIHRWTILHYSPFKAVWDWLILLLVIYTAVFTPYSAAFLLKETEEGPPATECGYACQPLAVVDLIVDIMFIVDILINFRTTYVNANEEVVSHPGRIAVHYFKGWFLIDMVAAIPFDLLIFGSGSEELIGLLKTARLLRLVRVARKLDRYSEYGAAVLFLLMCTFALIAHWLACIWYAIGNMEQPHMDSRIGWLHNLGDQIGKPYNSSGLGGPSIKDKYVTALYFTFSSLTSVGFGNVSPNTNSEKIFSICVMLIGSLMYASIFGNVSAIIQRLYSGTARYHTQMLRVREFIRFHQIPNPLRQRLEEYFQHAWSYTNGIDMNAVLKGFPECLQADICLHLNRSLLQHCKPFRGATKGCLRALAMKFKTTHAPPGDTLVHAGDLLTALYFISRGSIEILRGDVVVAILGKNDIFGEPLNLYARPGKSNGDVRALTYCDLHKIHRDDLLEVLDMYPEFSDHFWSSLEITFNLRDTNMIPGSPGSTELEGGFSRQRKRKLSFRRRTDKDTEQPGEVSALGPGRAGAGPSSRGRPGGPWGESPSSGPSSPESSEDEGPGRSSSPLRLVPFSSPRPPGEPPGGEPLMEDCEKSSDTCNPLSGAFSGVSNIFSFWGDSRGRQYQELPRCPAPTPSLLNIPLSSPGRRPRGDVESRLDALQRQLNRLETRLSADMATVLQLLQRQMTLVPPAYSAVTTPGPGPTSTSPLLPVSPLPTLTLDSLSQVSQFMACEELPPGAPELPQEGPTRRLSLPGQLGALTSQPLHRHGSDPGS
In series [19] the test system is Enterovirus A71. Nature of the series: Antiviral activity against EV71 695F infected in ICR mouse assessed as effect on clinical score at 10 mg/kg, ip qd administered for 7 days dosed after viral infection measured for 2 weeks. It counts as functional, organism-based.
The test system of series [20] is Enterovirus A71. Put plainly: Antiviral activity against EV71 695F infected in ICR mouse assessed as protection against viral infection by measuring mouse survival at 10 mg/kg, ip qd administered for 7 days dosed after viral infection measured for 2 weeks relative to control. The note with it: Enterovirus A. It counts as functional.
The test system of series [21] is Enterovirus A71. Put plainly: Antiviral activity against EV71 695F infected in ICR mouse assessed as effect on clinical score at 10 mg/kg, ip qd administered for 7 days dosed prior to viral infection measured for 2 weeks. It counts as functional, organism-based.
Series [22] relates to Enterovirus A71. Nature of the series: Antiviral activity against EV71 695F infected in ICR mouse assessed as protection against viral infection by measuring mouse survival at 10 mg/kg, ip qd administered for 7 days dosed prior to viral infection measured for 2 weeks relative to control. It counts as functional. The settings on record: Enterovirus A.
In series [23] the test system is Enterovirus A71. Put plainly: Antiviral activity against EV71 695F infected in ICR mouse assessed as decrease in body weight loss at 10 mg/kg, ip qd administered for 7 days dosed prior to viral infection measured for 2 weeks. The series is classed as functional, organism-based.
Series [24] relates to Enterovirus A71. Put plainly: Antiviral activity against EV71 695F infected in ICR mouse assessed as decrease in body weight loss at 10 mg/kg, ip qd administered for 7 days dosed after viral infection measured for 2 weeks. The series is classed as functional, organism-based.
The test system of series [25] is Mus musculus. Put plainly: Toxicity in ICR mouse infected with EV71 695F assessed as death at 50 mg/kg, ip qd administered for 7 days measured on day 6. The series is classed as organism-based. The note with it: in vivo, 168 h.
Series [26] relates to Mus musculus. Put plainly: Toxicity in ICR mouse infected with EV71 695F assessed as death at 100 mg/kg, ip qd administered for 7 days measured on day 5. The settings on record: in vivo, 168 h. It counts as organism-based.

Calls of active or inactive are those of the source. No cut-off for these calls is given here.

As for `O=C1N(CCCCc2cc3cc(-c4ccc(Cl)cc4)ccc3o2)CCN1c1ccncc1`, the CC50 at 72 h in [1] (RD cells) was determined as 4.3 µM.
Turning to `CCO/N=C(\CC)c1ccc(OCCCCCN2CCN(c3ccnc(N)c3)S2(=O)=O)cc1`, the CC50 at 72 h in [1] (RD cells) was more than 100 µM.
For the compound `O[C@H]1[C@H]2c3cc4c(cc3CN3CCC(=C[C@@H]1O)[C@H]23)OCO4` [LYCORINE], the survival at 0.4 mg/kg in the series with Enterovirus A71 [2] turned out to be 30%. In addition, the outcome with Enterovirus A71 [3] and in the series with Enterovirus A71 [4] was Active.
On to `O=C1N(CCCCCOc2ccc(-c3ccc(Cl)cc3)cc2)CCN1c1ccncc1`, for which, in [5], the half-life is 4 h. In [6], this compound came in with a volume of distribution (Vd) of 9 L/kg. The half-maximal cytotoxic concentration (CC50) at 72 h in [1] (RD cells) is more than 100 µM. In series [7], this compound displayed a clearance of 28 mL/min/kg. Further, the bioavailability in [8] is 64%. For the same compound, the figures for the AUC in [9] and in series [10] were 4.28 µM·h and 2.73 µM·h, respectively. Besides, the highest level in series [11] (Cmax) was 453 nM. Further, the time of peak concentration (Tmax) in series [12] worked out at 2 h. Besides, the Stability in [13] was 40 to 50 µL/min/mg.
Turning to `O=S1(=O)N(CCCCCOc2ccc(-c3ccc(Cl)cc3)cc2)CCN1c1ccncc1`, the time to peak (Tmax) in series [14] and in series [12] was 2 h each time. The half-life in [5] is 6 h. Further, the AUC in series [15] worked out at 6.17 µM·h; in [9], 9.01 µM·h; in series [10], 5.71 µM·h. In addition, the Vd in series [6] worked out at 5 L/kg. The CC50 at 72 h in [1] (RD cells) is more than 100 µM. In series [7], this compound came in with a clearance of 12 mL/min/kg. Further, the bioavailability in series [8] was 63%; in [16], 43%. Moreover, the values for the maximum concentration (Cmax) in series [11] and in series [17] were 682 nM and 617 nM, respectively. The same compound yielded a concentration for half-maximal inhibition (IC50) in series [18] of more than 30 µM. In series [13], this compound showed a Stability of less than 10 µL/min/mg.
`O=C1N(CCCCc2nc3cc(-c4ccc(Cl)cc4)ccc3o2)CCN1c1ccncc1`: the CC50 at 72 h in [1] (RD cells) is more than 100 µM.
Still for that read-out and setting: for `Nc1cc(N2CCN(CCCCCOc3ccc(-c4ccc(Cl)cc4)cc3)S2(=O)=O)ccn1` the value was more than 100 µM.
With `O=C1CN(c2ccncc2)CCN1CCCCCOc1ccc(-c2ccc(Cl)cc2)cc1`, the half-life in series [5] was 6 h. In [6], this compound had a Vd of 10 L/kg. In [1] (rd), the CC50 at 72 h turned out to be 3.2 µM. For the same compound, the clearance in series [7] was found to be 21 mL/min/kg. The bioavailability in [8] is 112%. The AUC in [9] was determined as 8.95 µM·h; in series [10], 3.34 µM·h. This compound returned a Cmax in series [11] of 1260 nM. The time of peak concentration (Tmax) in series [12] came out at 2 h. For the same compound, in [13], the Stability lay within 40 to 50 µL/min/mg.
Take `CCO/N=C1\CCc2cc(OCCCCCN3CCN(c4ccnc(N)c4)S3(=O)=O)ccc21`: the half-life in [5] is 1.5 h. Moreover, the result in the series on Enterovirus A71 [19], with Enterovirus A71 [21], with Enterovirus A71 [23] and with Enterovirus A71 [24] was Active. The survival at 10 mg/kg in the series on Enterovirus A71 [20] and in the series on Enterovirus A71 [22] was 100% throughout. Also, the Vd in series [6] came out at 2.8 L/kg. In [1] (rd), the CC50 at 72 h came out at 42 µM. Moreover, the clearance in [7] came to 34 mL/min/kg. Besides, in series [8], the bioavailability worked out at 88%. Further, the area under the curve (AUC) in series [9] turned out to be 3.87 µM·h; in series [10] it was 0.821 µM·h. Moreover, in series [11], the highest level (Cmax) was 2150 nM. Besides, the Tmax in [12] was 0.7 h.
As to `CCO/N=C/c1ccc(OCCCCCN2CCN(c3ccnc(N)c3)S2(=O)=O)cc1`, the half-life in series [5] is 1.6 h. In [6], this compound gave a Vd of 3.2 L/kg. Besides, the CC50 at 72 h in [1] (rd) is more than 100 µM. Also, the clearance in series [7] came out at 36 mL/min/kg. For the same compound, the bioavailability in series [8] came to 79%. The area under the curve (AUC) came to 2.45 µM·h in series [9] and 0.592 µM·h in [10]. This compound also showed a maximum concentration (Cmax) in [11] of 1440 nM. The Tmax in series [12] was 0.5 h.
With `CCO/N=C(\C)c1ccc(OCCCCCN2CCN(c3ccnc(N)c3)S2(=O)=O)cc1`, in [1] (RD cells), the half-maximal cytotoxic concentration (CC50) at 72 h is more than 100 µM.
As to `O=C1N(CCCCC2CCc3cc(-c4ccc(Cl)cc4)ccc3O2)CCN1c1ccncc1` (configuration not stated), the half-life in series [5] is 5 h. The compound also registered a Vd in [6] of 3 L/kg. In addition, the half-maximal cytotoxic concentration (CC50) at 72 h in series [1] (rd) was found to be 3.4 µM. The compound further gave a clearance in series [7] of 6 mL/min/kg. Besides, in [8], the bioavailability is 86%. For the same compound, the AUC was 23.2 µM·h in series [9] and 11 µM·h in series [10]. Also, in [11], the Cmax stood at 3360 nM. Moreover, the Tmax in series [12] amounted to 1 h. This compound also registered a Stability in series [13] of 40 to 50 µL/min/mg.
For `NC(=O)c1ncn([C@@H]2O[C@H](CO)[C@@H](O)[C@H]2O)n1` [RIBAVIRIN], the Activity entry in the series on Mus musculus [25] and in the series with Mus musculus [26] was “Toxic” in each case.
As for `CCO/N=C1\CCCc2cc(OCCCCCN3CCN(c4ccnc(N)c4)S3(=O)=O)ccc21`, the CC50 at 72 h in series [1] (RD cells) was more than 100 µM.
For the compound `CCO/N=C/c1ccc(OCCC(C)CCN2CCN(c3ccnc(N)c3)C2=O)cc1` (configuration not stated), the half-life in [5] was 0.3 h. The volume of distribution (Vd) in series [6] turned out to be 2.4 L/kg. Further, the CC50 at 72 h in [1] (rd) turned out to be 5 µM. In [7], this compound yielded a clearance of 105 mL/min/kg. Besides, the bioavailability in series [8] is 92%. For the same compound, the values for the AUC in [9] and in [10] were 1.71 µM·h and 0.371 µM·h, respectively. Further, the concentration in [11] peaked (Cmax) at 1560 nM. The time to peak (Tmax) in series [12] is 0.3 h.
As for `CCc1noc2cc(OCCCCCN3CCN(c4ccnc(N)c4)S3(=O)=O)ccc12`, the half-maximal cytotoxic concentration (CC50) at 72 h in [1] (RD cells) was more than 100 µM.
On to `CCn1ccc2cc(OCCCCCN3CCN(c4ccnc(N)c4)S3(=O)=O)ccc21`, for which, in series [1] (RD cells), the 50% cytotoxic concentration (CC50) at 72 h is more than 100 µM.
As to `CCn1ncc2cc(OCCCCCN3CCN(c4ccnc(N)c4)S3(=O)=O)ccc21`, in [1] (RD cells), the CC50 at 72 h was more than 100 µM.

Source of the values: ChEMBL document CHEMBL4190331, “Discovery of Potent EV71 Capsid Inhibitors for Treatment of HFMD” (ACS Med Chem Lett, 2017).
